Results on 6 compounds are retold here after US9944613B2, “Fumagillol spirocyclic compounds and fused bicyclic compounds and methods of making and using same” (Zafgen, Inc., priority 2015, dated 2018).

SMILES strings stand for the structures. Structures can show the parent of a compound that is named as a salt.

As a reminder, the inhibition in vivo is how much of the control response was suppressed. As usually defined, the IC50 is the midpoint of a concentration-inhibition curve.

In data set [1] the test system is pregnant Sprague Dawley rats (embryo/fetal development). Put plainly: Rat embryofetal development study. The format is in vivo. The conditions noted are these: 6 mpk subcutaneously once every three days, Gestation Days 6-18, pregnant rats. The source says:
Study Summary Rat Embryofetal:
The objective of this study design was to evaluate the potential effects of disclosed compounds on embryo/fetal development when given subcutaneously to pregnant rats once every three days during the critical period of organogenesis (Gestation Days 6-18). Female, Sprague Dawley rats, approximately 10 weeks of age, time bred, were ordered from a certified vendor and housed individually housed in stainless steel cages suspended over flush pans, on a 12-hour light-dark cycle (0700-1900) at 20-26° C. and 30-70% humidity. Rats were fed a standard rodent chow and provided water ad libitum. Rats were received and housed in the facility for a period of approximately 1 to 2 days.
Compounds were formulated using 100% DMSO mixed in Sterile Water for Injection, resulting in 2% DMSO solution in water. If necessary, due to limited solubility of a test article, a higher percentage of DMSO solution in water was used. Groups of 8 mated and presumed pregnant female rats were given subcutaneous doses of vehicle or test article, once every three days, beginning on Gestation Day 6 and ending on Gestation Day 18 (Days 6, 9, 12, 15, and 18), maintained two more days, and then euthanized and necropsied on Gestation Day 20. Body weights was recorded for all animals on Gestation Days 5 (purpose of randomization), 6, 9, 12, 15, 18, and 20 (scheduled euthanasia). Food consumption by weight was recorded on Gestation Days 6, 9, 12, 15, 18, and 20 (scheduled termination).
At necropsy, the dams were examined visually for external abnormalities including palpable masses. The abdominal, thoracic, and cranial cavities and their contents were examined for abnormalities and findings will be recorded. The reproductive tract were examined to record the number of ovarian corpora lutea, the number and location of uterine implantation sites noting the position of the cervix, and the number of early resorptions, late resorptions, live fetuses, and dead fetuses. For dead fetuses and late resorptions, crown-to-rump length and weight were recorded, if possible, and the fetus was discarded. For viable fetuses, weight, sex, and grossly visible external abnormalities were recorded.

Data set [2] has as its system Diet Induced Obese (DIO) C57BL/6 mice. Put plainly: 10 day DIO mouse model, weight loss vs. vehicle. The format is in vivo. Particulars: 240 h, 0.3 mpk sc once a day for 10 days. The text has this:
The objective of this study design was to investigate the efficacy of disclosed compounds in a 10 day DIO mouse model. Effects on body weight, food intake, hematology and blood chemistry were the primary readouts of this study design. Male, Diet Induced Obese (DIO) C57BL/6 mice, 19-21 weeks of age (13-15 weeks on high fat diet) were ordered from a certified vendor and upon receipt were housed on irradiated corncob bedding in micro-isolator cages on a 12-hour light-dark cycle (0700-1900) at 68-74° F. and 30-70% humidity. Mice were fed Research Diets D12492 (60% Kcal fat, 20% Kcal carbohydrate and 20% protein) and provided water ad libitum. DIO mice were received and housed in the facility for approximately two weeks prior to the start of test article administration. On Day −4 or −3, mice were randomized into study groups based on body weight and body weights were continued to be recorded daily for the duration of the study. Daily food intake was assessed starting on Study Day −2 by weighing of the food with hopper together to avoid loss of food in transfer.
(§1) Compounds were formulated into a 100% DMSO stock (at 9 mg/mL) prior to the start, and further diluted into the target working concentration using the vehicle of 10% DMSO in water. Prior to test article administration, starting on Day −3 a dosing acclimation occured with all animals receiving a subcutaneous injection of vehicle (10% DMSO) only for 3 days. Starting on Day 1, test compounds or vehicle were administered based on individual body weight, subcutaneously, once a day for 10 days. All mice were sacrificed on Day 11, 24 hours following the final dosing on Day 10. After sacrifice, whole blood was collected and analyzed for hematology and blood chemistry parameters.
(§2) Compounds were tested for weight loss vs. vehicle at 0.3 and 1.0 mpk sc (mg per kg animal weight delivered subcutaneously), and the results are shown in Table 2 below.

Another data set addresses T1, recombinant human MetAP2 (Homo sapiens, UniProt P50579).
T1 construct: Flag; made in house
Nature of the data set: Inhibition of recombinant human MetAP2 activity (MAS peptide / amino acid oxidase / Amplex assay). Particulars: Flag tagged human recombinant MetAP2, 25 minutes at 25° C.; read-out: MetAP2 IC50. The format is biochemical. The protocol:
Compounds are tested for their capacity to inhibit recombinant human MetAP2 activity using the following assay.
Flag tagged Human recombinant MetAP2 expressed and isolated for use as the enzyme source. 10 mM stock solutions of compounds were prepared in 100% DMSO and further diluted in 100% DMSO required concentration to 1 mM stocks. The stock compound solutions and DMSO vehicle controls were diluted to target final compound concentrations using assay buffer to a final concentration of 50 mM HEPES containing 100 mM NaCl, pH adjusted to 7.5. The MAS peptide was formulated to a 7.5 mM stock in distilled water and prior to use further diluted 1:4. […] 40 μl of enzyme was mixed with 100 μl of MnCl2 then further diluted in assay buffer to a final concentration of 16 μg/ml. To test for compound effect on MetAP2 enzyme activity, 5 μl of test compound, 10 μl of MAS substrate/amino acid oxidase mixture, 10 μl of MetAP2 was added to test wells in a 384 well black plate with blank wells containing no enzyme, replaced with 10 μl of assay buffer. All compounds were tested in duplicate on two occasions on the same day.
The plate was sealed with a TopSeal A cover and mixed briefly on an orbital mixer at 900 rpm. The plate was incubated for a further 25 minutes at 25° C. A 5× stock of Amplex buffer was prepared (0.25M sodium phosphate, pH 7.4) and stored at 4° C. When preparing for use the stock was diluted with distilled water. […] Horse radish peroxidase was diluted in […] of Amplex buffer, 100 μl of this was combined with 50 μl of Amplex Ultrared in […] of 1× Amplex buffer to generate sufficient detection reagent for a 384 well plate. 25 μl detection reagent was added to each well of the test plate, which was re-sealed and mixed briefly on an orbital shaker. The plate was transferred to an Envision Multi-label reader and RFU measured corresponding to excitation 531 nm and emission 595 nm. At the end of the MetAP2 incubation 25 μl Amplex/HRP mixture per well was added and the plate read plate on a plate reader.

The subject of data set [3] is rat DIO model (Sprague Dawley rats on high fat diet). Put plainly: 11 day rat DIO model, weight loss vs. vehicle. The data set is classed as in vivo. The conditions noted are these: for Rat @ 1.0 mpk sc (%): 1.0 mpk sc once a day for 11 days; for inhibition in vivo at 0.3 mg/kg: Rattus norvegicus, 264 h, 0.3 mpk sc once a day for 11 days.
Text: The objective of this study design is to investigate the efficacy of disclosed compounds in an 11 day rat DIO model used to screen compounds for pharmacologic efficacy on endpoints related to obesity and metabolism. Effects on body weight, food intake, hematology and blood chemistries were the primary readouts of this study design. Male Sprague Dawley rats, approximately 8 weeks of age, were ordered from a certified vendor and housed on irradiated corncob bedding in micro-isolator cages, on a 12-hour light-dark cycle (0700-1900) at 68-74° F. and 30-70% humidity. Rats were fed Research Diets D12451 (45% High Fat) and provided water ad libitum. Rats were received and housed in the facility for at least two or three weeks prior to start of test article administration. On Day −4 or −3, rats were randomized into study groups based on body weight and body weights were continued to be recorded daily for the duration of the study. Daily food intake was assessed starting on Study Day −2 by weighing the hopper including the food to avoid loss of food in transfer.
as §1, with “for 11” for “for 10”, “All animals” for “All mice”, “11, approximately 2” for “11, 24”, “Day 11.” for “Day 10.”
as §2

T1 sequence (P50579 whole entry): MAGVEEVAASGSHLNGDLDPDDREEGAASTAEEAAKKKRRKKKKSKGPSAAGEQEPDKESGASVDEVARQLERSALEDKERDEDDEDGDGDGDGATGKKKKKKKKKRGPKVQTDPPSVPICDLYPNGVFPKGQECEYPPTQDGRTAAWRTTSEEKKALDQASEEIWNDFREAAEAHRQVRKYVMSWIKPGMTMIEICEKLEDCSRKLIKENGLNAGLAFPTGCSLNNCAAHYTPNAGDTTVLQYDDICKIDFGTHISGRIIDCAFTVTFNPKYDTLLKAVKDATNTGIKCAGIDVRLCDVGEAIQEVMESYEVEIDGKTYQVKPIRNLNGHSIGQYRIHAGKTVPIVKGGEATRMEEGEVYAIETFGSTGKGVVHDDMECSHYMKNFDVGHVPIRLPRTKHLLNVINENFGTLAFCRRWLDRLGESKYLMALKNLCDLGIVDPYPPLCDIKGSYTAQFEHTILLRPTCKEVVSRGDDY

For the compound `CO[C@@H]1[C@H](OC(=O)N2CC3C(C2)C3(F)F)CC[C@]2(CO2)[C@H]1[C@@]1(C)O[C@@H]1CC=C(C)C` (stereo partly drawn) [Example 22, (3R,4S,5S,6R)-5-methoxy-4-((2R,3R)-2-methyl-3-(3-methylbut-2-enyl)oxiran-2-yl)-1-oxaspiro[2.5]octan-6-yl 6,6-difluoro-3-azabicyclo[3.1.0]hexane-3-carboxylate], the “Rat Embryofetal @6 mpk” value in data set [1] is listed as “Negative”. In data set [2], the inhibition in vivo at 0.3 mg/kg came out at 15.5%. Also, the IC50 on recombinant human MetAP2 is less than 0.05 µM.
Regarding `CO[C@@H]1[C@H](OC(=O)N2CC3(CCN(CC(F)F)CC3)C2)CC[C@]2(CO2)[C@H]1[C@@]1(C)O[C@@H]1CC=C(C)C` [Example 9, (3R,4S,5S,6R)-5-methoxy-4-((2R,3R)-2-methyl-3-(3-methylbut-2-enyl)oxiran-2-yl)-1-oxaspiro[2.5]octan-6-yl 7-(2,2-difluoroethyl)-2,7-diazaspiro[3.5]nonane-2-carboxylate formate], the “Rat Embryofetal @6 mpk” value in data set [1] is “Positive”. For the same compound, in data set [2], the inhibition in vivo at 0.3 mg/kg was 21.5%. Moreover, at recombinant human MetAP2, the IC50 was 0.05 to 0.5 µM.
Regarding `CO[C@@H]1[C@H](OC(=O)N2CC3(COC3)C2)CC[C@]2(CO2)[C@H]1[C@@]1(C)O[C@@H]1CC=C(C)C` [Example 2, (3R,4S,5S,6R)-5-methoxy-4-((2R,3R)-2-methyl-3-(3-methylbut-2-enyl)oxiran-2-yl)-1-oxaspiro[2.5]octan-6-yl 2-oxa-6-azaspiro[3.3]heptane-6-carboxylate], the “Rat Embryofetal @6 mpk” value in data set [1] is “Positive”. In data set [2], this compound registered an inhibition in vivo at 0.3 mg/kg of 11.1%. At recombinant human MetAP2, the IC50 was less than 0.05 µM. Moreover, in data set [3], the “Rat @ 1.0 mpk sc (%)” value is listed as 10.2% and the inhibition in vivo at 0.3 mg/kg was determined as 8%.
Compound `CO[C@@H]1[C@H](OC(=O)N2CCC3(CCOCC3)CC2)CC[C@]2(CO2)[C@H]1[C@@]1(C)O[C@@H]1CC=C(C)C` [Example 1, (3R,4S,5S,6R)-5-methoxy-4-((2R,3R)-2-methyl-3-(3-methylbut-2-enyl)oxiran-2-yl)-1-oxaspiro[2.5]octan-6-yl 3-oxa-9-azaspiro[5.5]undecane-9-carboxylate] came in with an inhibition in vivo at 0.3 mg/kg in data set [2] of 17%. The IC50 on recombinant human MetAP2 was in the range of 0.05 to 0.5 µM. For the same compound, in data set [3], the “Rat @ 1.0 mpk sc (%)” value amounted to 16.3% and the inhibition in vivo at 0.3 mg/kg was 10.3%.
For the compound `CO[C@@H]1[C@H](OC(=O)N2CC3(CCOC3)C2)CC[C@]2(CO2)[C@H]1[C@@]1(C)O[C@@H]1CC=C(C)C` [Example 6, (3R,4S,5S,6R)-5-methoxy-4-((2R,3R)-2-methyl-3-(3-methylbut-2-enyl)oxiran-2-yl)-1-oxaspiro[2.5]octan-6-yl 6-oxa-2-azaspiro[3.4]octane-2-carboxylate], the inhibition in vivo at 0.3 mg/kg was determined as 13.9% in data set [2] and 2.7% in data set [3]. The half-inhibitory concentration (IC50) on recombinant human MetAP2 was less than 0.05 µM.
On to `CO[C@@H]1[C@H](OC(=O)N2CCC3(CCOCC3)C2)CC[C@]2(CO2)[C@H]1[C@@]1(C)O[C@@H]1CC=C(C)C` [Example 27, (3R,4S,5S,6R)-5-methoxy-4-((2R,3R)-2-methyl-3-(3-methylbut-2-enyl)oxiran-2-yl)-1-oxaspiro[2.5]octan-6-yl 8-oxa-2-azaspiro[4.5]decane-2-carboxylate], for which, in data set [1], the “Rat Embryofetal @6 mpk” value is “Positive”. This compound also gave an inhibition in vivo at 0.3 mg/kg in data set [2] of 16.3%. The IC50 at recombinant human MetAP2 lay in the range of 0.05 to 0.5 µM.
